Consider 25 compounds from US20250206730A1 (AUTOTELIC BIO INC., priority 2022, published 2025).

One assay deals with TGF-β signaling. The experiment in a line: Assay for evaluating cellular inhibition of TGF-β signaling, 4T1 (SBE-luc2P) luciferase reporter. It counts as cell-based. Conditions: Mus musculus, 4T1, 4T1 (SBE-luc2P) transient pool, 0.2% FBS, 2 h pre-treatment, TGF-β1 2 ng/mL 24 h; read-out: IC50 4T1 Cell. A digest of the protocol: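 4T1 cells transiently carrying SBE-luc2P (6×10^3/well, 0.2% FBS, ~60% confluence) or HEK293 SBE-reporter stable cells (2.5×10^4/well, 0.5% FBS, ~80% confluence) pre-treated with compound for 2 h. TGF-β1 (2 ng/mL) then added for 24 h at 37 °C; luciferase luminescence read from lysates.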
(In a reporter assay the amount or activity of a reporter protein is the signal.)

In a further assay the target is T1, ALK5 kinase (Homo sapiens, UniProt P36897).
T1 sequence (P36897 34-503): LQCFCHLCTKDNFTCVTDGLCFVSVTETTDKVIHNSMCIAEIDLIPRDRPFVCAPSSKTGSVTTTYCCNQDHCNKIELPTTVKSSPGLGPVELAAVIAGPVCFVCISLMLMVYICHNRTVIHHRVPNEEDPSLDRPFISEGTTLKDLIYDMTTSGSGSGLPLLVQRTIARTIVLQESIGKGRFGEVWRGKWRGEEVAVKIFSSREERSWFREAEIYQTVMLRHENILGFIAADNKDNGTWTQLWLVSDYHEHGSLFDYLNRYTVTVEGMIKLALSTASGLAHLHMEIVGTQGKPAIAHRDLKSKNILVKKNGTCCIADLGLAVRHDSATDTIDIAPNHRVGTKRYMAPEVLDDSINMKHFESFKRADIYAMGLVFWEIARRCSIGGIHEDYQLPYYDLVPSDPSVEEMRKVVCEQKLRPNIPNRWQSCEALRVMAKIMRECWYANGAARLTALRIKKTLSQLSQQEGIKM
The experiment in a line: LanthaScreen Eu Kinase Binding Assay. Conditions: Kinase Tracer 178, Eu-anti-GST Antibody, read-out: IC50 Enzyme. Here is the method: [Example 1] LanthaScreen Eu Kinase Binding Assay
4 μL of 4× Test Compound in 4% DMSO and 4 μL of 4× Kinase in Kinase buffer were added to wells (low volume, white 384-well plate (Greiner Cat. #784207)). The plate was shaken for 30 seconds, centrifuged for 10 seconds at 1000 rpm, and incubated at RT for 30 minutes. Then, 4 μL of 4× Eu-anti-GST Antibody and 4 μL of 4× Kinase Tracer 178 were added to the wells. The plate was shaken for 30 seconds, centrifuged for 10 seconds at 1000 rpm, and incubated at RT for 60 minutes. Fluorescence was measured by a plate reader, Biotek Synergy H1 (Vermont, USA) under the following conditions. • Excitation: 340 nm (3 nm bandpass) • Kinase tracer emission: 665 nm (10 nm bandpass) • Eu Ab emission: 615 nm (10 nm bandpass) • Emission ratio=665 nm (tracer)/615 nm (Eu Ab) • The higher the binding affinity of compound to ALK5 kinase is, the less the emission ratio is.

For `Cc1nc(-c2ccccc2)c(Oc2ccnc(Nc3cccc(Cc4nnn[nH]4)c3)c2)s1` [A-112, N-(3-((1H-Tetrazol-5-yl)methyl)phenyl)-4-((2-methyl-4-phenylthiazol-5-yl)oxy)pyridin-2-amine], the IC50 in the assay with TGF-β signaling and on ALK5 kinase was less than 100 nM in each case.
Take `Cc1nc(-c2ccccc2)c(Oc2ccnc(Nc3cccc(NS(=O)(=O)C(F)(F)F)c3)c2)s1` [A-107, 1,1,1-Trifluoro-N-(3-((4-((2-methyl-4-phenylthiazol-5-yl)oxy)pyridin-2-yl)amino)phenyl)methanesulfonamide]: the IC50 in the assay on TGF-β signaling and on ALK5 kinase was less than 100 nM each time.
As to `CNc1nc(-c2ccccc2)c(Oc2ccnc(Nc3ccc(C(=O)O)cc3)c2)s1` [A-56, 4-((4-((2-(Methylamino)-4-phenylthiazol-5-yl)oxy)pyridin-2-yl)amino)benzoic acid], the IC50 – broadly, the concentration at which inhibition is half-maximal – in the assay on TGF-β signaling was more than 100 nM; on ALK5 kinase, less than 100 nM.
The corresponding values for `Cc1cccc(-c2nc(N)sc2Oc2ccnc(Nc3ccc(C(=O)O)cc3)c2)n1` [A-248, 4-((4-((2-Amino-4-(6-methylpyridin-2-yl)thiazol-5-yl)oxy)pyridin-2-yl)amino)benzoic acid] are more than 100 nM and less than 100 nM.
In the case of `CN(C)c1nc(-c2ccccc2)c(Oc2ccnc(Nc3cccc(S(N)(=O)=O)c3)c2)s1` [A-154, 3-((4-((2-(Dimethylamino)-4-phenylthiazol-5-yl)oxy)pyridin-2-yl)amino)benzenesulfonamide], the figures for the IC50 with TGF-β signaling and on ALK5 kinase were more than 100 nM and less than 100 nM, respectively.
Consider `Cc1cccc(-c2nc(C(C)C)sc2Oc2ccnc(Nc3ccc(C(N)=O)cn3)c2)n1` [A-288, 6-((4-((2-Isopropyl-4-(6-methylpyridin-2-yl)thiazol-5-yl)oxy)pyridin-2-yl)amino)nicotinamide], for which the IC50 with TGF-β signaling and on ALK5 kinase was less than 100 nM in each case.
In the case of `O=C(O)c1cccc(Nc2cc(Oc3sc(NC4CC4)nc3-c3ccccc3)ccn2)c1` [A-48, 3-((4-((2-(Cyclopropylamino)-4-phenylthiazol-5-yl)oxy)pyridin-2-yl)amino)benzoic acid], the values for the IC50 in the assay on TGF-β signaling and on ALK5 kinase were more than 100 nM and less than 100 nM, respectively.
Turning to `O=C(NO)c1ccc(Nc2cc(Oc3sc(C4CC4)nc3-c3ccccc3)ccn2)nc1` [A-138, 6-((4-((2-Cyclopropyl-4-phenylthiazol-5-yl)oxy)pyridin-2-yl)amino)-N-hydroxynicotinamide], the IC50 with TGF-β signaling and on ALK5 kinase was less than 100 nM throughout.
On to `Cc1nc(-c2ccccc2)c(Oc2ccnc(Nc3cccc(CC#N)c3)c2)s1` [A-111, 2-(3-((4-((2-Methyl-4-phenylthiazol-5-yl)oxy)pyridin-2-yl)amino)phenyl)acetonitrile], for which the IC50 in the assay on TGF-β signaling and at ALK5 kinase was less than 100 nM each time.
Turning to `CN(C)c1nc(-c2ccccc2)c(Oc2ccnc(Nc3cccc(C(C)(C)O)c3)c2)s1` [A-153, 2-(3-((4-((2-(Dimethylamino)-4-phenylthiazol-5-yl)oxy)pyridin-2-yl)amino)phenyl)propan-2-ol], the figures for the IC50 in the assay on TGF-β signaling and at ALK5 kinase were more than 100 nM and less than 100 nM, respectively.
Consider `NC(=O)c1cccc(Nc2cc(Oc3sc(C4CC4)nc3-c3ccccc3)ccn2)c1` [A-117, 3-((4-((2-Cyclopropyl-4-phenylthiazol-5-yl)oxy)pyridin-2-yl)amino)benzamide], for which the IC50 in the assay with TGF-β signaling and on ALK5 kinase was less than 100 nM throughout.
Regarding `CN(C)c1nc(-c2ccccc2)c(Oc2ccnc(Nc3cccc(C(N)=O)n3)c2)s1` [A-160, 6-((4-((2-(Dimethylamino)-4-phenylthiazol-5-yl)oxy)pyridin-2-yl)amino)picolinamide], the IC50 in the assay on TGF-β signaling and on ALK5 kinase was less than 100 nM each time.
`CNC(=O)c1ccc(Nc2cc(Oc3sc(C(F)(F)F)nc3-c3ccccc3)ccn2)cc1` [A-148, N-Methyl-4-((4-((4-phenyl-2-(trifluoromethyl)thiazol-5-yl)oxy)pyridin-2-yl)amino)benzamide]: the IC50 with TGF-β signaling and on ALK5 kinase was less than 100 nM throughout.
In the case of `CNC(=O)c1ccc(Nc2cc(Oc3sc(C4CCCCC4)nc3-c3ccccc3)ccn2)nc1` [A-180, 6-((4-((2-Cyclohexyl-4-phenylthiazol-5-yl)oxy)pyridin-2-yl)amino)-N-methylnicotinamide], the IC50 with TGF-β signaling and at ALK5 kinase was more than 100 nM each time.
On to `Cc1nc(-c2ccccc2)c(Oc2ccnc(Nc3ccc(C(N)=O)nc3)c2)s1` [A-91, 5-((4-((2-Methyl-4-phenylthiazol-5-yl)oxy)pyridin-2-yl)amino)picolinamide], for which the figures for the IC50 in the assay on TGF-β signaling and at ALK5 kinase were more than 100 nM and less than 100 nM, respectively.
On to `CCc1nc(-c2cccc(C)n2)c(Oc2ccnc(Nc3ccc(C(=O)NC)cn3)c2)s1` [A-253, 6-((4-((2-Ethyl-4-(6-methylpyridin-2-yl)thiazol-5-yl)oxy)pyridin-2-yl)amino)-N-methylnicotinamide], for which the IC50 in the assay on TGF-β signaling and on ALK5 kinase was less than 100 nM each time.
As for `CCc1nc(-c2ccccc2)c(Oc2ccnc(Nc3cccc(S(N)(=O)=O)c3)c2)s1` [A-181, 3-((4-((2-Ethyl-4-phenylthiazol-5-yl)oxy)pyridin-2-yl)amino)benzenesulfonamide], the IC50 in the assay on TGF-β signaling and on ALK5 kinase was less than 100 nM in each case.
Take `CC(C)c1nc(-c2ccccc2)c(Oc2ccnc(Nc3cccc(C(=O)O)c3)c2)s1` [A-230, 3-((4-((2-Isopropyl-4-phenylthiazol-5-yl)oxy)pyridin-2-yl)amino)benzoic acid]: the values for the IC50 in the assay with TGF-β signaling and on ALK5 kinase were more than 100 nM and less than 100 nM, respectively.
Regarding `CNC(=O)c1cccc(Nc2cc(Oc3sc(C(C)C)nc3-c3ccccc3)ccn2)n1` [A-225, 6-((4-((2-Isopropyl-4-phenylthiazol-5-yl)oxy)pyridin-2-yl)amino)-N-methylpicolinamide], the IC50 in the assay on TGF-β signaling and at ALK5 kinase was less than 100 nM in each case.
For the compound `CNc1nc(-c2ccccc2)c(Oc2ccnc(Nc3ccc(S(N)(=O)=O)cc3)c2)s1` [A-53, 4-((4-((2-(Methylamino)-4-phenylthiazol-5-yl)oxy)pyridin-2-yl)amino)benzenesulfonamide], the IC50 on ALK5 kinase is less than 100 nM.
Take `CNc1nc(-c2ccccc2)c(Oc2ccnc(Nc3ccc(C(C)(C)O)nc3)c2)s1` [A-55, 2-(5-((4-((2-(Methylamino)-4-phenylthiazol-5-yl)oxy)pyridin-2-yl)amino)pyridin-2-yl)propan-2-ol]: the IC50 on ALK5 kinase was less than 100 nM.
On to `CNc1nc(-c2ccccc2)c(Oc2ccnc(Nc3ccnc(C(C)(C)O)c3)c2)s1` [A-54, 2-(4-((4-((2-(Methylamino)-4-phenylthiazol-5-yl)oxy)pyridin-2-yl)amino)pyridin-2-yl)propan-2-ol], for which, on ALK5 kinase, the IC50 is less than 100 nM.
As for `Cc1cccc(-c2nc(N)sc2Oc2ccnc(Nc3cccc(S(N)(=O)=O)c3)c2)n1` [A-247, 3-((4-((2-Amino-4-(6-methylpyridin-2-yl)thiazol-5-yl)oxy)pyridin-2-yl)amino)benzenesulfonamide], the 50% inhibitory concentration (IC50) on ALK5 kinase was less than 100 nM.
With `NC(=O)c1cccc(Nc2cc(Oc3sc(NC4CC4)nc3-c3ccccc3)ccn2)c1` [A-46, 3-((4-((2-(Cyclopropylamino)-4-phenylthiazol-5-yl)oxy)pyridin-2-yl)amino)benzamide], at ALK5 kinase, the IC50 is less than 100 nM.
As to `NC(=O)c1ccc(Nc2cc(Oc3sc(C4CCCC4)nc3-c3ccccc3)ccn2)nc1` [A-173, 6-((4-((2-Cyclopentyl-4-phenylthiazol-5-yl)oxy)pyridin-2-yl)amino)nicotinamide], the IC50 on ALK5 kinase is more than 100 nM.
